Patent publication US7235536B2, “Cellulose sulfate and other sulfated polysaccharides to prevent and treat papilloma virus infection and other infections” (Rush Presbyterian-St. Luke's Medical Center, priority 2000, dated 2007)

How the values were obtained:
[1] = system: Fusobacterium gonidiaformans; test: Agar method MIC; assay type: cell-based; conditions: for CS MIC: Agar
Porphyromonas levii = test: Agar method MIC; assay type: cell-based; conditions: for CS MIC: Agar
Bacteroides fragilis = test: Broth method MIC; assay type: cell-based
Gardnerella vaginalis [2] = test: Broth method MIC; assay type: cell-based; conditions: for CS MIC: Broth (study 2)
Clostridium perfringes = test: Broth method MIC; assay type: cell-based; conditions: for CS MIC: Broth (study 2)
Prevotella bivia = test: Broth method MIC; assay type: cell-based
HPV-11 = test: RT-PCR ELISA for transient infection of human A431 cells, HPV-11; assay type: cell-based, human papilloma virus; conditions: with virus (HPV-11)
Description: Cellulose sulfate and dextran sulfate were each prepared as a 2 mg/ml solution in 0.9% NaCl and tested for microbicidal activity using the in vitro HPV transient infection assay originally described by Smith and colleagues (Smith, L. H., C. Foster, M. E. Hitchcock, and R. Isseroff. 1993. In vitro HPV-11 infection of human foreskin. J. Invest. Dermatol. 101:292-295) with some modifications (Ludmerer, S. W., W. L. McClements, X. M. Wang, J. C. Ling, K. U. Jansen, and N. D. Christensen. 2000. HPV11 mutant virus-like parties elicit immune responses that neutralize virus and delineate a novel neutralizing domain. Virology 266:237-245). An ELISA-based read-out of Optical Density (OD) values using alkaline phosphatase cleavage of the substrate p-nitrophenyl phosphate was also used to measure HPV infection as described below.
A modification of the RT-PCR assay that incorporates an ELISA-based read-out (Boehringer-Mannheim) was also included to assess microbicidal activity. Replicate cell cultures of A431 cells were infected with an aliquot of infectious HPV virions as described above. After 4 days of culture, cells were harvested and RNA extracted. RNA was subjected to RT using downstream anti-sense (reverse) primers for HPV-11 or HPV-40 and β-actin (as a control/housekeeping cellular transcript) to initiate cDNA synthesis. The cDNA was processed through 2 sets of 30 cycles of PCR amplification using nested primers: the second set of cycles used digoxygenin (DIG)-dUTP to label the PCR products with DIG. DIG-labeled PCR products were denatured then renatured together with a biotinylated oligonucleotide specific for the targeted PCR product. Biotinylated products were detected in ELISA with plates coated with streptavidin (to capture the biotinylated target PCR product) then anti-DIG antibody and substrate. Labeled PCR products were added directly to ELISA plates, or titrated at 10-fold dilutions in duplicate for each cell culture for each virus dilution.

[3] = system: Bacteroides thetaiotaomicron; test: Agar method MIC; assay type: cell-based
Gardnerella vaginalis [4] = test: Agar well growth inhibition on HBT bilayer agar plates; assay type: cell-based
Description: A fresh subculture of G. Vaginalis which is bacteria frequently associated with vaginitis was obtained after overnight growth (16 hours) on a V-agar plate and suspended in sterile phosphate buffered saline (PBS; pH 7.2) to achieve a turbidity of 0.5 (McFarland standard; approximately 10^8 CFU/ml). The suspension was diluted 10 fold and applied to HBT bilayer agar plates by swabbing the entire plate. The plate was allowed to dry for 2-3 min and small wells punched in the agar, 10 mm in diameter. Samples of cellulose sulfate were dissolved at 10 mg/ml in PBS and 0.2 ml placed in the agar wells. As control, 0.2 ml PBS was placed in one of the wells. Growth inhibition was indicated by a light area around the well.
The studies were repeated using various concentrations of cellulose sulfate (ranging from 10 mg/ml to 0.125 mg/ml) and 4 different Gardnerella vaginalis strains. […] The lowest initial concentration of cellulose sulfate at which growth inhibition occurred was 0.5 mg/ml.

Fusobacterium nucleatum = test: Broth method MIC; assay type: cell-based; conditions: for CS MIC: Broth (study 2)
Prevotella intermedia = test: Broth method MIC; assay type: cell-based; conditions: for CS MIC: Broth (study 2)
[5] = Example 8, agar, 48 hours anaerobic, highest tested 625 μg/ml

Substance: sodium cellulose sulfate
- lowest concentration of compound that inhibited growth [1, 5]: 156 µg/mL
- CS MIC ([1]; rma# 11423): >625 µg/mL
- CS MIC ([1]; rma# 11653): 156 µg/mL
- lowest concentration of compound that inhibited growth (Porphyromonas levii; [5]): 40 µg/mL
- CS MIC (Porphyromonas levii; rma# 11425): >625 µg/mL
- CS MIC (Porphyromonas levii; rma# 11601): 40 µg/mL
- CS MIC (Bacteroides fragilis; ATCC (first listed), Broth (study 1)): NI (not inhibited by 10 mg/ml (the highest concentration tested))
- CS MIC (Bacteroides fragilis; ATCC (first listed), Broth (study 2)): 10000 µg/mL
- CS MIC (Bacteroides fragilis; ATCC (second listed), Broth (study 2)): NI (not inhibited by 10 mg/ml (the highest concentration tested))
- growth inhibition (Bacteroides fragilis; at the concentrations tested): one strain of Bacteroides fragilis was inhibited but three others were not
- CS MIC (Bacteroides fragilis; rma# 11647, Broth (study 2)): NI (not inhibited by 10 mg/ml (the highest concentration tested))
- CS MIC (Bacteroides fragilis; rma# 11652, Broth (study 2)): NI (not inhibited by 10 mg/ml (the highest concentration tested))
- growth inhibition (Gardnerella vaginalis [2]; both strains): inhibited
- CS MIC (Gardnerella vaginalis [2]; rma# 12066): 5000 µg/mL
- CS MIC (Gardnerella vaginalis [2]; rma# 12262): 5000 µg/mL
- growth inhibition (Clostridium perfringes; at the concentrations tested): inhibited one strain of Clostridium perfringes but not another one
- CS MIC (Clostridium perfringes; rma# 11608): 10000 µg/mL
- CS MIC (Clostridium perfringes; rma# 11655): NI (not inhibited by 10 mg/ml (the highest concentration tested))
- growth inhibition (Prevotella bivia; all strains): inhibited
- CS MIC (Prevotella bivia; rma# 11683, Broth (study 1)): NI (not inhibited by 10 mg/ml (the highest concentration tested))
- CS MIC (Prevotella bivia; rma# 11683, Broth (study 2)): 5000 µg/mL
- CS MIC (Prevotella bivia; rma# 11697, Broth (study 1)): 600 µg/mL
- CS MIC (Prevotella bivia; rma# 11697, Broth (study 2)): 5000 µg/mL
- Mean (SD) of O.D. reading for RT-PCR ELISA, HPV-11 probe (HPV-11; 10 μg/ml at viral pretreatment): 1.485 (0.045) O.D.
- Mean (SD) of O.D. reading for RT-PCR ELISA, HPV-11 probe (HPV-11; 100 μg/ml at viral pretreatment): 0.049 (0.001) O.D.
- Mean (SD) of O.D. reading for RT-PCR ELISA, HPV-11 probe (HPV-11; 1000 μg/ml at viral pretreatment): 0.038 (0.001) O.D.
- CS MIC ([3]; ATCC (first listed)): >625 µg/mL
- CS MIC ([3]; rma# 11604): >625 µg/mL
- CS MIC ([3]; rma# 11651): >625 µg/mL
- area of growth inhibition around the well, diameter (Gardnerella vaginalis [4]; 10 mg/ml in PBS, 0.2 ml in agar well): 6 mm
- growth inhibition (Gardnerella vaginalis [4]; 4 different Gardnerella vaginalis strains, 10 mg/ml to 0.125 mg/ml): Dose dependent inhibition
- lowest initial concentration at which growth inhibition occurred (Gardnerella vaginalis [4]; 4 different Gardnerella vaginalis strains, 10 mg/ml to 0.125 mg/ml tested): 0.5 mg/mL
- growth inhibition (Fusobacterium nucleatum; both strains, broth method): inhibited
- CS MIC (Fusobacterium nucleatum; rma# 10481): 5000 µg/mL
- CS MIC (Fusobacterium nucleatum; rma# 11518): 10000 µg/mL
- growth inhibition (Prevotella intermedia; all strains): inhibited
- CS MIC (Prevotella intermedia; rma# 11142): 10000 µg/mL
- CS MIC (Prevotella intermedia; rma# 11168): 10000 µg/mL
